Measurements taken from patent US9993494B2, “Compositions and methods for treating fibrotic disease” (eFFECTOR Therapeutics, Inc., priority 2014, dated 2018).

Legend:
Type in all cases: cell-based
[1] = tested on: normal human lung fibroblasts; assay: Western blot of α-smooth muscle actin (α-SMA) in TGFβ-treated fibroblasts; conditions: fibroblasts treated with TGFβ, 24 hours, western blot
Procedure: (§1) Briefly, normal human lung fibroblasts (Lonza #CC-2512; cell passage numbers 2 through 5 were used for all experiments) were seeded (Day 0) and cultured in Dulbecco's modified Eagle medium (DMEM) supplemented with 10% fetal bovine serum (FBS), penicillin, streptomycin and glutamax (Invitrogen) at 37° C. in a humidified incubator with 5% CO2 overnight. On Day 1, cells were harvested, washed with phosphate buffered saline (PBS), and then incubated for 48 hours in fresh serum-free DMEM supplemented with penicillin, streptomycin, and glutamax.
(§2) After this 24 hour incubation, procollagen type 1 levels were measured by collecting culture media, centrifuging to pellet cellular debris, and stored at −80° C. Procollagen Type 1 C-Peptide (PIPC) was quantified using the (PIP) EIA kit (Clontech, Cat. No. MK101) according to manufacturer's instructions. The TGFβ-treated fibroblasts of this example were examined by ribosomal profiling (about 6×10^6 cells/10 cm plate) and western blot analysis (about 1×10^6 cells/well of a 6-well plate).
TGFβ-dependent activation of the PI3K/Akt/mTOR and ERK pathways were also examined by western blot analysis (about 1×10^6 cells/well from a 6-well plate). Briefly, cells were washed with PBS and lysed in 1× cell lysis buffer (Cell Signaling Technology, Inc., Danvers, Mass.) for 15 minutes at 4° C. Lysates were briefly sonicated, clarified by centrifugation for 15 minutes at 14,000 rpm, and then supernatants were collected. Protein concentration in the soluble fraction was determined by BCA protein assay (Thermo Scientific, Rockford, Ill.). Samples of protein (20 μg) were resolved on 4-20% Bis-Tris gradient gel (Invitrogen, Carlsbad, Calif.) and transferred to nitrocellulose membrane. The resulting blots were blocked for 1 hour at room temperature with Odyssey blocking solution (LI-COR) and then incubated with primary antibodies at 4° C. overnight. The following day, each blot was washed three times for 10 minutes in TBST, and then incubated with goat anti-rabbit fluorescent conjugated secondary antibody (IRDye 800 CW at 1:20,000; LI-COR) for 1 hour at room temperature. The blots were washed and scanned, and then specific proteins were detected by using the LI-COR Odyssey infrared imager. The following antibodies were used at 1:1000 dilution: anti-α-actin (Sigma #A2547), anti-phospho-4EBP(Ser65), anti-phospho-rpS6(Ser235/236)(#4858), anti-phospho-ERK1/2(Thr202/Tyr204)(#4370), anti-phospho-p70S6K(Thr421/Ser424)(#9204), anti-phospho-pAKT(Ser473), anti-phospho-MNK(Thr197/202), and anti-β-actin (#4970). Unless otherwise indicated, the antibodies were from Cell Signaling Technology, Inc. (Danvers, Mass.).
as §1, with “(Lonza;” for “(Lonza #CC-2512;”, “CO2 conditions” for “CO2”, “glutamax. On Day 3, cells were harvested, resuspended in fresh serum-free DMEM containing silvestrol (1, 5, 10, 75, 100, 500, or 1000 nM) and 10 ng/ml TGFβ, and cultured for 24 hours. Controls included untreated cells and cells treated with only TGFβ.” for “glutamax.”
as §2, with “kit (Clontech)” for “kit (Clontech, Cat. No. MK101)”, “example are” for “example were”

[2] = tested on: normal human lung fibroblasts; assay: Procollagen Type 1 C-Peptide (PIPC) EIA in culture media of TGFβ-treated fibroblasts; conditions: fibroblasts treated with TGFβ, 24 hours, procollagen ELISA
Procedure: as §1, §2
as §1, with “(Lonza;” for “(Lonza #CC-2512;”, “CO2 conditions” for “CO2”, “glutamax. On Day 3, cells were harvested, resuspended in fresh serum-free DMEM containing silvestrol (1, 5, 10, 75, 100, 500, or 1000 nM) and 10 ng/ml TGFβ, and cultured for 24 hours. Controls included untreated cells and cells treated with only TGFβ.” for “glutamax.”
as §2, with “kit (Clontech)” for “kit (Clontech, Cat. No. MK101)”, “example are” for “example were”
The levels of α-SMA and procollagen type 1, markers of fibroblast transdifferentiation into myofibroblasts and a surrogate for fibrotic disease progression, were measured after a 24 hour incubation of fibroblasts in the presence or absence of TGFβ sieIF4A1 or siCont. The knockdown efficiency was determined by quantitating the eIF4A mRNA level by qPCR (data not shown) and assessing the protein level by western analysis (see FIG. 11).

[3] = tested on: normal human lung fibroblasts; assay: Ribosomal profiling: translational efficiency in TGFβ-treated fibroblasts; conditions: vs untreated fibroblasts
Procedure: Ribosomal profiling allows for measurement of changes in transcription and translation on a genome-wide basis accompanying TGFβ-dependent transformation of fibroblasts to myofibroblasts. Ribosomal profiles of the TGFβ-treated fibroblasts from Example 1 (about 6×10^6 cells/10 cm plate) were prepared and analyzed for changes in translational efficiencies with respect to potential disease-associated cellular changes accompanying this TGFβ-induced transformation.
Briefly, cells were washed with cold PBS supplemented with cycloheximide and lysed with 1× mammalian cell lysis buffer for 10 minutes on ice. Lysates were clarified by centrifugation for 10 minutes at 14,000 rpm and supernatants were collected. Cell lysates were processed to generate ribosomal protected fragments and total mRNA according to the instructions included with the ARTseq Ribosome Profiling Kit (Illumina, San Diego, Calif.). Sequencing of total RNA (RNA) and of ribosome-protected fragments of RNA (RPF) was carried out using RNA-Seq methodology according to the manufacturer's instructions (Illumina). To analyze the ribosomal profiles, RNA-Seq reads were processed with tools from the FASTX-Toolkit (fastq_quality_trimmer, fastx_clipper and fastx_trimmer). Unprocessed and processed reads were evaluated for a variety of quality measures using FastQC, and processed reads were mapped to the human genome using TopHat (see, e.g., Trapnell et al., Bioinformatics 25:1105, 2009). Gene-by-gene assessment of the number of fragments strictly and uniquely mapping to the coding region of each gene was conducted using HTSeq-count, a component of the HTSeq package. […] Genes with low counts in either RPF or RNA were excluded from differential analyses. Pathway and network analyses of differential data were conducted using Ingenuity Pathway Analysis (IPA).

## CO[C@H]1C[C@@H]2CC[C@@H](C)[C@@](O)(O2)C(=O)C(=O)N2CCCC[C@H]2C(=O)O[C@H]([C@H](C)C[C@@H]2CC[C@@H](O)[C@H](OC)C2)CC(=O)[C@H](C)/C=C(\C)[C@@H](O)[C@@H](OC)C(=O)[C@H](C)C[C@H](C)/C=C/C=C/C=C/1C [Rapamycin]
[1]
  % Renormalization α-SMA: + (+ = 0-30%)
[2]
  % Renormalization Collagen: ++ (++ = 30-60%)

## COC(=O)c1ccc2c(c1)NC(=O)/C2=C(\Nc1ccc(N(C)C(=O)CN2CCN(C)CC2)cc1)c1ccccc1 [Nintedanib]
[1]
  % Renormalization α-SMA: +++ (+++ = >60%)
[2]
  % Renormalization Collagen: +++ (+++ = >60%)

## CC(C)CCN1c2nc(Nc3cc(F)c(O)c(F)c3)ncc2N(C)C(=O)C1C (stereo not drawn) [BI-D1870, 2-[(3,5-Difluoro-4-hydroxyphenyl)amino]-7,8-dihydro-5,7-dimethyl-8-(3-methylbutyl)-6(5H)-pteridone]
[1]
  % Renormalization α-SMA: ++ (++ = 30-60%)
[2]
  % Renormalization Collagen: +++ (+++ = >60%)

## TGF-β
[3]
  Log2FC TE AKT1: −0.15
  Log2FC TE AKT2: −0.16
  Log2FC TE AKT3: 0.35
  Log2FC TE ATM: −0.16
  Log2FC TE EIF1: 0.75
  Log2FC TE EIF2A: 0.74
  Log2FC TE EIF2AK1: −0.25
  Log2FC TE EIF2AK3: 0.67
  Log2FC TE EIF2AK4: −0.28
  Log2FC TE EIF2B1: 0.57
  Log2FC TE EIF2B2: 0.16
  Log2FC TE EIF2B3: 0.54
  Log2FC TE EIF2B4: −0.35
  Log2FC TE EIF2B5: 0.46
  Log2FC TE EIF2C2: 0.12
  Log2FC TE EIF2S1: −0.18
  Log2FC TE EIF2S2: −0.43
  Log2FC TE EIF2S3: 1.05
  Log2FC TE EIF3A: 0.04
  Log2FC TE EIF3B: 0.30
  Log2FC TE EIF3D: 0.71
  Log2FC TE EIF3E: 1.33
  Log2FC TE EIF3F: 0.92
  Log2FC TE EIF3G: 0.55
  Log2FC TE EIF3H: 1.34
  Log2FC TE EIF3I: 0.29
  Log2FC TE EIF3K: 0.73
  Log2FC TE EIF3L: 1.63
  Log2FC TE EIF3M: 0.90
  Log2FC TE EIF4A1: 0.35
  Log2FC TE EIF4A2: 0.41
  Log2FC TE EIF4A3: 0.19
  Log2FC TE EIF4E: −0.51
  Log2FC TE EIF4G1: 0.10
  Log2FC TE EIF4G2: 0.87
  Log2FC TE EIF4G3: −0.54
  Log2FC TE EIF5: 0.56
  Log2FC TE FAU: 0.35
  Log2FC TE GRB2: 0.05
  Log2FC TE GSK3B: −0.13
  Log2FC TE HRAS: 0.13
  Log2FC TE MAP2K1: −0.18
  Log2FC TE MAP2K2: 0.02
  Log2FC TE MAPK1: 0.12
  Log2FC TE MAPK3: 0.29
  Log2FC TE MRAS: −0.45
  Log2FC TE NRAS: 0.19
  Log2FC TE PABPC1: 0.16
  Log2FC TE PAIP1: −0.69
  Log2FC TE PIK3C2A: −0.64
  Log2FC TE PIK3C3: −0.09
  Log2FC TE PIK3CA: −0.66
  Log2FC TE PIK3R4: −0.69
  Log2FC TE PPP1CA: 0.04
  Log2FC TE PPP1CB: 0.13
  Log2FC TE PPP1CC: 0.27
  Log2FC TE PPP1R15A: −0.09
  Log2FC TE RAF1: 0.16
  Log2FC TE RPL3: 1.68
  Log2FC TE RPL4: 1.23
  Log2FC TE RPL5: 1.49
  Log2FC TE RPL6: 1.13
  Log2FC TE RPL7: 0.59
  Log2FC TE RPL7A: 1.37
  Log2FC TE RPL8: 0.69
  Log2FC TE RPL9: 1.41
  Log2FC TE RPL10: 0.74
  Log2FC TE RPL10A: 0.92
  Log2FC TE RPL11: 0.78
  Log2FC TE RPL12: 1.28
  Log2FC TE RPL13: 0.83
  Log2FC TE RPL13A: 1.26
  Log2FC TE RPL14: 1.08
  Log2FC TE RPL15: 0.95
  Log2FC TE RPL17: 0.97
  Log2FC TE RPL18: 0.81
  Log2FC TE RPL18A: 1.06
  Log2FC TE RPL19: 0.71
  Log2FC TE RPL21: 0.83
  Log2FC TE RPL22: 0.22
  Log2FC TE RPL22L1: 0.84
  Log2FC TE RPL23: 0.79
  Log2FC TE RPL23A: 1.03
  Log2FC TE RPL24: 1.09
  Log2FC TE RPL26: 1.42
  Log2FC TE RPL27: 1.17
  Log2FC TE RPL27A: 1.17
  Log2FC TE RPL28: 1.24
  Log2FC TE RPL29: 1.16
  Log2FC TE RPL30: 1.20
  Log2FC TE RPL31: 0.80
  Log2FC TE RPL32: 1.55
  Log2FC TE RPL34: 1.21
  Log2FC TE RPL35: 0.59
  Log2FC TE RPL35A: 1.22
  Log2FC TE RPL36: 0.76
  Log2FC TE RPL36AL: −0.08
  Log2FC TE RPL37: 1.31
  Log2FC TE RPL37A: 1.33
  Log2FC TE RPL38: 1.00
  Log2FC TE RPL41: 0.85
  Log2FC TE RPLP0: 0.73
  Log2FC TE RPLP1: 0.50
  Log2FC TE RPLP2: 0.93
  Log2FC TE RPS2: 0.88
  Log2FC TE RPS3: 1.22
  Log2FC TE RPS3A: 1.48
  Log2FC TE RPS4X: 1.14
  Log2FC TE RPS4Y1: 0.78
  Log2FC TE RPS5: 0.75
  Log2FC TE RPS6: 1.59
  Log2FC TE RPS7: 1.13
  Log2FC TE RPS8: 1.20
  Log2FC TE RPS9: 0.97
  Log2FC TE RPS10: 0.74
  Log2FC TE RPS11: 0.97
  Log2FC TE RPS12: 0.94
  Log2FC TE RPS13: 1.15
  Log2FC TE RPS14: 1.01
  Log2FC TE RPS15: 0.74
  Log2FC TE RPS15A: 1.53
  Log2FC TE RPS16: 1.10
  Log2FC TE RPS18: 1.18
  Log2FC TE RPS19: 0.99
  Log2FC TE RPS20: 1.39
  Log2FC TE RPS21: 1.36
  Log2FC TE RPS23: 0.74
  Log2FC TE RPS24: 0.66
  Log2FC TE RPS25: 1.58
  Log2FC TE RPS26: 0.71
  Log2FC TE RPS27: 1.08
  Log2FC TE RPS27A: 0.71
  Log2FC TE RPS27L: −0.15
  Log2FC TE RPS28: 0.74
  Log2FC TE RPS29: 0.89
  Log2FC TE RPSA: 0.99
  Log2FC TE RRAS: 0.00
  Log2FC TE RRAS2: 0.02
  Log2FC TE SHC1: −0.04
  Log2FC TE SOS2: 0.49
  Log2FC TE UBA52: 0.87
